The target of the experiment is T1, human vasopressin V2 receptor subtype (Homo sapiens, UniProt P30518).
T1 construct: host or cells: CHO cells (pZeoSV vector)
In words: Vasopressin binding in Chinese Hamster Ovary cell membranes expressing human vasopressin V2 subtype receptors. The following applies: CHO cell membranes, [3H]arginine vasopressin; for IC50: values in parentheses. Summed up: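 Radioligand displacement on membranes from CHO cells stably expressing human V2 receptor, 25 to 50 μg protein/well, in 50 mM Tris-HCl pH 7.4 with MgCl2, BSA and protease inhibitors. [^3H]arginine vasopressin (8 nM working solution) incubated 60 min at room temperature; bound label measured by filtration and scintillation counting.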

T1 sequence (P30518 whole entry): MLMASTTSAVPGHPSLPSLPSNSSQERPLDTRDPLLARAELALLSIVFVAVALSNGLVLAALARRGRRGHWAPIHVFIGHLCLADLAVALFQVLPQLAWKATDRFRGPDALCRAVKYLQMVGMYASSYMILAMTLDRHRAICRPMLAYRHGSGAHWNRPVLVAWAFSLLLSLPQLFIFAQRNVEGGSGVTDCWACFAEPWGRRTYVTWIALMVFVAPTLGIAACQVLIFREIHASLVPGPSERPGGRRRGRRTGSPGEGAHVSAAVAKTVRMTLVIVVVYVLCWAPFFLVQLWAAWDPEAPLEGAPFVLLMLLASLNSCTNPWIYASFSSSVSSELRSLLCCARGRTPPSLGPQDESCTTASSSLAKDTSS

As for `COc1cc(-c2ccccc2C)c(Cl)cc1C(=O)N1Cc2ccc(C(=O)N3CCC(N4CCCC4)CC3)n2Cc2ccccc21` [Example 136, {10-[(6-Chloro-3-methoxy-2′-methyl[1,1′-biphenyl]-4-yl)carbonyl]-10,11-dihydro-5H-pyrrolo[2,1-c][1,4]benzodiazepin-3-yl}[4-(1-pyrrolidinyl)-1-piperidinyl]methanone], the half-maximal inhibitory concentration (IC50) – broadly, the concentration that gives 50% inhibition – is 0.597 µM.

For the compound `COc1cccc(-c2cc(OC)c(C(=O)N3Cc4ccc(C(=O)N(C)CCN(C)C)n4Cc4ccccc43)cc2Cl)c1` [Example 87, 10-[(6-Chloro-3,3′-dimethoxy[1,1′-biphenyl]-4-yl)carbonyl]-N-[2-(dimethylamino)ethyl]-N-methyl-10,11-dihydro-5H-pyrrolo[2,1-c][1,4]benzodiazepine-3-carboxamide], the IC50 turned out to be 2.18 µM.

In the case of `Cc1cc(C(=O)N2Cc3ccc(C(=O)N(C)CCN(C)C)n3Cc3ccccc32)ccc1-c1ccccc1C(F)(F)F` [Example 85, N-[2-(Dimethylamino)ethyl]-N-methyl-10-{[2-methyl-2′-(trifluoromethyl)[1,1′-biphenyl]-4-yl]carbonyl}-10,11-dihydro-5H-pyrrolo[2,1-c][1,4]benzodiazepine-3-carboxamide], the IC50 was 3.13 µM.

`COc1cc(C(=O)N2Cc3ccc(C(=O)N4CCC[C@H]4CN4CCCC4)n3Cc3ccccc32)ccc1-c1ccccc1C(F)(F)F` [Example 20, {[10-(2-Methoxy)-2′-trifluoromethyl-[1,1′-biphenyl]-4-yl]carbonyl}-[(2S)-[(2-pyrrolidin-1-yl)methyl]pyrrolidin-1-yl]-10,11-dihydro-5H-pyrrolo[2,1-c][1,4]benzodiazepin-3-yl-methanone]: the IC50 was determined as 4.36 µM.

Turning to `Cc1ccc(-c2ccc(C(=O)N3Cc4cccn4Cc4ccccc43)cc2)c2ccccc12` [Example 25, [4-(4-Methyl-naphthalen-1-yl)phenyl][10,11-dihydro-5H-pyrrolo[2,1-c][1,4]benzodiazepin-10-yl]methanone], the IC50 is 0.0113 µM.

`COc1cc(-c2ccccc2C)c(Cl)cc1C(=O)N1Cc2ccc(C(=O)N3CCN(CCN(C)C)CC3)n2Cc2ccccc21` [Example 197, {10-[(6-Chloro-3-methoxy-2′-methyl[1,1′-biphenyl]-4-yl)carbonyl]-10,11-dihydro-5H-pyrrolo[2,1-c][1,4]benzodiazepin-3-yl}{4-[2-(dimethylamino)ethyl]-1-piperazinyl}methanone]: the IC50 is 0.497 µM.

Consider `COc1cc(C(=O)N2Cc3ccc(C(=O)N(C)CCCN(C)C)n3Cc3ccccc32)ccc1-c1ccccc1C` [Example 105, N-[3-(Dimethylamino)propyl]-10-[(2-methoxy-2′-methyl[1,1′-biphenyl]-4-yl)carbonyl]-N-methyl-10,11-dihydro-5H-pyrrolo[2,1-c][1,4]benzodiazepine-3-carboxamide], for which, where the note is “100 nM, values without parentheses”, the inhibition – broadly, the drop in the measured response relative to a control, in per cent – at 0.1 µM is 18%.

On to `COc1ccccc1-c1ccc(C(=O)N2Cc3ccc(C(=O)N4CCN(C)CC4)n3Cc3ccccc32)cc1` [Example 48, {10-[(2′-Methoxy[1,1′-biphenyl]-4-yl)carbonyl]-10,11-dihydro-5H-pyrrolo[2,1-c][1,4]benzodiazepin-3-yl}(4-methyl-1-piperazinyl)methanone], for which the IC50 turned out to be 0.7 µM.

`COc1cccc(-c2cc(OC)c(C(=O)N3Cc4ccc(C(=O)N(C)CCCN(C)C)n4Cc4ccccc43)cc2Cl)c1` [Example 99, 10-[(6-Chloro-3,3′-dimethoxy[1,1′-biphenyl]-4-yl)carbonyl]-N-[3-(dimethylamino)propyl]-N-methyl-10,11-dihydro-5H-pyrrolo[2,1-c][1,4]benzodiazepine-3-carboxamide]: the IC50 worked out at 1.33 µM.

Regarding `COc1cc(-c2ccccc2C)ccc1C(=O)N1Cc2ccc(C(=O)N(C)CCCN(C)C)n2Cc2ccccc21` [Example 11, N-Methyl-N-[3-(dimethylamino)propyl]-10-[(3-methoxy-2′-methyl[1,1′-biphenyl]-4-yl)carbonyl]-10,11-dihydro-5H-pyrrolo[2,1-c][1,4]benzodiazepine-3-carboxamide], the IC50 amounted to 1.35 µM.

The record behind these values is patent publication US7109193B2, “Tricyclic diazepines tocolytic oxytocin receptor antagonists” (Wyeth, priority 2001, dated 2006).
